Measurements taken from US5153211A, “Spiro-tricyclicaromatic succinimide derivatives as inhibitors of aldose reductase” (Alcon Laboratories, Inc., priority 1991, dated 1992).
Read-outs that look alike come from different tables or passages of the source. Blank lines part the entries; values can stand above or below the compound they belong to.

Tests used:
[1] = molecular target: T1, rat lens aldose reductase (Rattus norvegicus, UniProt P07943); test: inhibition of rat lens aldose reductase; assay type: biochemical
T1 construct: evaluated against rat lens aldose reductase; from tissue; host or cells: rat lens
Description: *IC50 values are based on inhibition of rat lens aldose reductase.
a) P. F. Kador, L. O. Merola and J. H. Kinoshita, Docum. Ophthal. Proc. Series, 18, 117-124 (1979);
b) P. F. Kador, J. H. Kinoshita, W. H. Tung and L. T. Chylack, Jr., Invest. Ophthalmol. Vis. Sci., 19, 980-982 (1980);
c) P. F. Kador, D. Carper and J. H. Kinoshita, Analytical Biochemistry, 114, 53-58 (1981).
Wherein the assay mixture used in the tests containing 0.1M potassium phosphate buffer, pH 6.2, 0.2 mM nictoinamide adenine dinucleotide phosphate (NADPH), 10 mM D,L-glyceraldehyde, and an appropriate volume of the enzyme preparation, thermostated at 25° C. in the cell compartment of a spectrophotometer. These conditions are identical to those published in references (a), (b) and (c), except that a larger NADPH concentration was employed. […] The control sample contained no added inhibitor. In order to measure aldose reductase inhibition activity, varying concentrations of the inhibitor examples set forth below were added to the standard incubation mixture. The control, containing the enzyme and NADPH, gave a very small, but measurable rate; thus, it served as the blank against which to measure the glyceraldehyde-dependent rate of NADPH oxidation. The tests were conducted with human placental aldose reductase enzyme. The results of the tests are the product of multiple assays. […] A test compound is considered active if it inhibits or reduces human aldose reductase activity at 1×10^-4 M concentration or less. The following list is provided as a representative sample of the biological activity of the spiro-tricyclic derivatives of the present invention.
According to the procedures of Kador, Merola and Kinoshite, Docum. Ophthal. Proc. Series, 18 (1979) 117 and Kador and Sharpless, Biophysical Chemistry, 8 (1978) 81 the inhibition exerted by examples of the present invention where evaluated against rat lens aldose reductase. Otherwise, the inhibitor assay is identical to that employed against human aldose reductase in Example XXVI. Representative rat lens aldose reductase inhibition is presented in terms of the concentration of test compound required to reduce rat lens aldose reductase enzyme activity by 50%. A test compound is considered active if it inhibits or reduces rat lens aldose reductase activity at 1×10^-4 M concentration or less.

[2] = tested on: rat lenses in 30 mM xylose culture; test: rat lens culture assay, 30 mM xylose cataract model; assay type: cell-based, Sprague-Dawley rats; conditions: for lens opacification / lens wet weight increase: 7.5×10^-7 M in the culture media, 30 mM xylose, 18 h; for activity at 0.75 µM: Rattus norvegicus, after 18 h 30 mM xylose culture, compound 7.5 × 10^-7 M, % of control contralateral lens
Description: Aldose reductase inhibitor potency may be evaluated in rat lens culture assays where 30 mM of glucose, galactose or xylose can be used in culture to induce a `sugar` cataract. In addition to monitoring lens clarity, certain biochemical radiolabeled markers (e.g., choline --^3 H and ^86 Rb) are employed to measure lens function. See Obazawa, Merola and Kinoshita, Invest. Ophthalmol., 13 (1974) 204 and Jernigan, Kador and Kinoshita, Exp. Eye Res., 32 (1981) 709.
The general procedure is as follows: a) Sprague-Dawley rats of 75-100 g body weight are sacrificed and the lenses removed immediately; b) the contralateral lens of the pair of lenses is employed as untreated control lens; c) the test lens is cultured in TC-199 culture media in the presence of 30 mM xylose, 30 mM xylose plus a selected concentration of test compound or a selected concentration of test compound; d) the contralateral control lens is treated identical to the test lens except no test compound or xylose is included; e) the matched lens pairs are cultured for 18 h in a CO2 incubator; f) the lenses are compared morphologically and weighed. All lenses, control and test groups, are allowed to preincubate for 1 h in respective control media or drug control media prior to transfer to xylose media or xylose-drug media. In those cases where radiolabelled markers are to be measured, the lenses are treated as aforementioned except the radiolabelled marker(s) are added to the culture at four hours before harvesting. Radiolabelled markers include choline --^3 H ([…] available from New England Nuclear), AIBA --^14 C (α-[1-^14 C]-(CH3)2 C(NH2)COOH available from New England Nuclear) and ^86 Rb. The effect of xylose on lens uptake of ^86 Rb, lens uptake of amino acid (AIBA --^14 C) and lens uptake of choline --^3 H and the effectiveness of representative compounds of the present invention to preserve normal lens morphology is reported here.
The effect of 30 mM xylose and 30 mM xylose plus selected concentrations of test compound on radioactivity ratio is expressed as L/M % of control. L/M % of control is defined as the test lens radioactivity divided by culture media radioactivity as a percentage of the control contralateral lens radioactivity to media radioactivity ratio under identical test conditions but always without xylose or test compound in the control. The effect of 30 mM xylose in the culture media gives a reproducible deleterious effect on the lens as measured by the various L/M %. Furthermore, after incubation of the lens in 30 mM xylose in the TC-199 culture media, the lens gains 20% weight (mostly water weight increase based on dry lens weight measurements) and becomes opaque in the cortex of the lens. Each experiment requires 20-40 pairs of lenses to determine the potency of a selected aldose reductase inhibitor.

galactosemic rats = conditions: per oral, once daily, cited from earlier work
[3] = tested on: chronic streptozotocin-induced rats; conditions: 8 mg/kg per oral per day; cited from earlier work
[4] = read-out: L/M% = Lens uptake of 86Rb
[5] = read-out: L/M% = Lens uptake of AIBA-14C (amino acid)
[6] = read-out: L/M% = Lens uptake of choline-3H
[7] = based on inhibition of rat lens aldose reductase, read-out: IC50

SMILES: COc1cc(F)cc2c1-c1c(OC)cc(F)cc1C21NC(=O)NC1=O [2,7-difluoro-4,5-dimethoxyspiro (9H-fluorene-9,4'-imidazolidine)-2',5'-dione]
IC50 ([1]; based on the inhibition of rat lens aldose reductase, read-out: IC50 value): 7.8 nM

SMILES: O=C1NC(=O)C2(N1)c1cc(F)ccc1-c1ccc(F)cc12 [B, Spiro-(2,7-difluoro-9H-fluoren-9,4'-imidazolidine)-2',5'-dione, reference compound]
lens opacification [2]: prevented
lens wet weight increase [2]: prevented
activity at 0.75 µM [2, 4]: 82%
activity at 0.75 µM [2, 5]: 87%
activity at 0.75 µM [2, 6]: 105%
preventing cataract in galactosemic rats (galactosemic rats; 0.4 mg/kg): wholly effective

SMILES: O=C1NC(=O)C2(S1)c1ccccc1-c1ccc(F)cc12 (centres unmarked) [C, Spiro-(2-fluoro-9H-fluoren-9,5'-thiazolidine)-2',4'-dione]
lens opacification [2]: prevented
lens wet weight increase [2]: prevented
activity at 0.75 µM [2, 4]: 70%
activity at 0.75 µM [2, 5]: 58%
activity at 0.75 µM [2, 6]: 77%

SMILES: Cc1cc(F)cc2c1-c1ccc(F)cc1C21CC(=O)NC1=O (centres unmarked) [Compound 3, 2,7-DIFLUORO-4-METHYLSPIRO[9H-FLUORENE-9,3'-PYRROLIDINE]-2',5'-DIONE]
IC50 [1, 7]: 2.8 nM

SMILES: O=C1NC(=O)C2(S1)c1cc(F)cc(F)c1-c1c(F)cc(F)cc12 [Compound 7, 2,4,5,7-TETRAFLUOROSPIRO[9H-FLUORENE-9,5'-THIAZOLIDINE]-2',4'-DIONE]
IC50 [1, 7]: 17 nM

SMILES: O=C1NC(=O)C2(N1)c1cc(F)cc(F)c1-c1c(F)cc(F)cc12 [Compound 9, 2,4,5,7-TETRAFLUOROSPIRO[9H-FLUORENE-9,4'-IMIDAZOLIDINE]-2',5'-DIONE]
IC50 [1, 7]: 12 nM

SMILES: COc1cc(F)cc2c1-c1ccc(F)cc1C21CC(=O)NC1=O (centres unmarked) [Compound 17, 2,7-DIFLUORO-4-METHOXYSPIRO[9H-FLUORENE-9,3'-PYRROLIDINE]-2',5'-DIONE]
IC50 [1, 7]: 4.8 nM

SMILES: COc1cc(F)cc2c1-c1c(F)cc(F)cc1C21NC(=O)NC1=O (centres unmarked) [Compound 28, 2,4,7-TRIFLUORO-5-METHOXYSPIRO[9H-FLUORENE-9,4'-IMIDAZOLIDINE]-2',5'-DIONE]
IC50 [1, 7]: 11300 nM

SMILES: O=C1NC(=O)C2(N1)c1ccccc1-c1ccc(F)cc12 (centres unmarked) [Compound A, Spiro-(-2-fluoro-9H-fluoren-9,4'-imidazolidine)-2',5'-dione, reference compound]
cataract in chronic streptozotocin-induced rats [3]: prevent cataract
motor nerve conduction velocity in chronic streptozotocin-induced rats [3]: significantly preserve
lens opacification [2]: prevented
lens wet weight increase [2]: prevented
activity at 0.75 µM [2, 4]: 55%
activity at 0.75 µM [2, 5]: 50%
activity at 0.75 µM [2, 6]: 73%
preventing cataract in galactosemic rats (galactosemic rats; 1.26 mg/kg): wholly effective

SMILES: O=C1NC(=O)C2(S1)c1cc(F)ccc1-c1ccc(F)cc12 [D, Spiro-(2,7-difluoro-9H-fluoren-9,5'-thiazolidine)-2',4'-dione]
lens opacification [2]: prevented
lens wet weight increase [2]: prevented
activity at 0.75 µM [2, 4]: 83%
activity at 0.75 µM [2, 5]: 85%
activity at 0.75 µM [2, 6]: 109%

The next lines start with the values.

IC50 [1, 7]: 12.8 nM
SMILES: Cc1cc(F)cc2c1-c1ccc(F)cc1C21NC(=O)NC1=O (centres unmarked) [Compound 11, 2,7-DIFLUORO-4-METHYLSPIRO[9H-FLUORENE-9,4'-IMIDAZOLIDINE]-2',5'-DIONE]

IC50 [1, 7]: 9.4 nM
SMILES: COc1cc(F)cc2c1-c1ccc(F)cc1C21NC(=O)NC1=O (centres unmarked) [Compound 16, 2,7-DIFLUORO-4-METHOXYSPIRO[9H-FLUORENE-9,4'-IMIDAZOLIDINE]-2',5'-DIONE]

IC50 [1, 7]: 48 nM
SMILES: Cc1ccc2c(n1)-c1c(F)cc(F)cc1C21NC(=O)NC1=O (centres unmarked) [Compound 22, 7,9-DIFLUORO-2-METHYLSPIRO[5H-INDENO[1,2-b]PYRIDIN-5,4'-IMIDAZOLIDINE]-2',5'-DIONE]

IC50 [1, 7]: 17.5 nM
SMILES: CSc1cc(F)cc2c1-c1ccc(F)cc1C21NC(=O)NC1=O (centres unmarked) [Compound 34, 2,7-DIFLUORO-4-METHYLTHIOSPIRO[9H-FLUORENE-9,4'-IMIDAZOLIDINE]-2',5'-DIONE]

IC50 [1, 7]: 16.1 nM
SMILES: Cc1cc(F)cc2c1-c1ncc(F)cc1C21NC(=O)NC1=O (centres unmarked) [Compound 43, 3,7-DIFLUORO-9-METHYLSPIRO[5H-INDENO[1,2-b]PYRIDIN-5,4'-IMIDAZOLIDINE]-2',5'-DIONE]
